Results: patent US5900250A, “Monoglyceride/lactate ester permeation enhancer for oxybutnin” (ALZA Corporation, priority 1998, dated 1999)

Key:
[1] = solubility of glycerol monolaurate in lauryl lactate / EVA 40; format: physicochemical; conditions: for Wt % GML in solution: based on GML solubility of 350 mg/g
Description: The unexpected effects of the specific weight percentages of the components of the permeation enhancer mixture are believed to be due, in part, to the solubility of the monoglyceride in the lactic acid ester. It is known that monoglycerides by themselves are effective permeation enhancers. The enhancement occurs by the solubilization of the monoglyceride in the lipid layer of the skin. The solubilization of the monoglyceride in the lipid layer increases as a function of lactic acid ester concentration. […] Thus, the amount of GML dissolved, ie, free GML, is dictated by and proportional to the lauryl lactate loading in the polymer.

[2] = in vitro permeation of oxybutynin through human epidermis at 35° C., EVA 40 systems on horizontal permeation cells (Examples 4-5); format: in vitro ADME; conditions: R- or S-oxybutynin versus racemate
Protocol: Oxybutynin, glycerol monolaurate and lauryl lactate were then added.
When EVA 40 was used the mixture was blended, cooled and calendered to a 5 mil thick film. This film was then laminated to an acrylic contact adhesive (MSP041991P, 3M) on one side and Medpar® backing (3M) on the opposite side. The laminate was then cut into 2.54 cm^2 circles using a stainless steel punch. Circular pieces of human-epidermis were mounted on horizontal permeation cells with the stratum corneum facing the donor compartment of the cell. The release liner of the system was then removed and the system was centered over the stratum corneum side of the epidermis.

[3] = format: in vivo, human; conditions: after the initial application; transdermal with permeation enhancing mixture
Protocol: Therapeutic blood levels can be achieved within approximately 6-10 hours after the initial application, and blood concentrations are maintained with subsequent system applications. The range of desired and achievable system permeation rates of oxybutynin, arriving through the skin from a limited area, is 1-20 mg over a period of 24 hours. The system application is easily adapted for shorter or longer duration treatments, but generally 72 hours is the duration for a single application.

[4] = aqueous solution 25 mg/mL, 0.05 M isotonic phosphate buffer, 20 μm polybutadiene film, cited from earlier work

## CCCCCCCCCCCC(=O)OCC(O)CO (centres unmarked) [GML, glycerol monolaurate]
[1]; 12% lauryl lactate in EVA 40
  Wt % GML in solution: 4.2%
[1]; 20% lauryl lactate in EVA 40
  Wt % GML in solution: 7.0%
[1]; 27% lauryl lactate in EVA 40
  Wt % GML in solution: 9.5%
[1]; 30% lauryl lactate in EVA 40
  Wt % GML in solution: 10.5%
[1]; EVA 40 matrix
  solubility in EVA 40 matrix: practically insoluble
[1]; solution stirred
  solubility of glycerol monolaurate in lauryl lactate: 350 mg/g of solution

## CCN(CC)CC#CCOC(=O)[C@@](O)(c1ccccc1)C1CCCCC1 [S-oxybutynin]
[2]
  flux of enantiomer relative to racemate, in words: approximately equivalent to that of the racemate

## CCN(CC)CC#CCOC(=O)[C@](O)(c1ccccc1)C1CCCCC1 [R-oxybutynin]
[2]
  flux of enantiomer relative to racemate, in words: approximately equivalent to that of the racemate

## CCN(CC)CC#CCOC(=O)C(O)(c1ccccc1)C1CCCCC1 (centres unmarked) [Oxybutynin]
[3]
  time to therapeutic blood levels: 6 to 10 h
[4]
  in vitro release rate (per area): ~10 μg/cm^2.hr
[4]; through a 49 cm^2 area
  in vitro release rate (amount over 24 hours): approximately 12 mg over 24 hours
